These are literature values, as cited in patent US20070293674A1, “Novel Saperconazole Crystalline Forms and Related Processes, Pharmaceutical Compositions and Methods” (TRANSFORM PHARMACEUTICALS, INC., priority 2004, published 2007).

The conditions of data set [1]: piperazine of itraconazole.
For data set [2] the following is noted: free base.

Turning to `CCC(C)n1ncn(-c2ccc(N3CCN(c4ccc(OC[C@H]5CO[C@](Cn6cncn6)(c6ccc(Cl)cc6Cl)O5)cc4)CC3)cc2)c1=O` (mixture of isomers) [itraconazole, 4-[4-[4-[4-[[2-(2,4-dichlorophenyl)-2-(1H-1,2,4-triazol-1-ylmethyl)-1,3-dioxolan-4-yl]methoxy]phenyl]-1-piperazinyl]phenyl]-2,4-dihydro-2-(1-methylpropyl)-3H-1,2,4-triazol-3-one], the “pKa value for the piperazine” value in data set [1] was 3.7. Further, the solubility in water entry in data set [2] is listed as “only very sparingly soluble in water”.
